In paper PMC8509773, “3-Pyridinylidene Derivatives of Chemically Modified Lupane and Ursane Triterpenes as Promising Anticancer Agents by Targeting Apoptosis” (International Journal of Molecular Sciences, 2021):
“Also recorded” adds a separate entry of the source. Marks after values point to notes of the source that are not given here.

What was measured:
Bad gene [1] = experiment: rtPCR gene expression in A375 cells; type: cell-based, human
Description: (§1) We applied rtPCR techniques in order to investigate the effect of our two compounds on the anti-apoptotic Bcl-XL and Bcl-2 genes as well as the proapoptotic Bak and Bad genes (Table 4). […] Therefore, we may presume that the apoptotic mechanism of both compounds against the A375 cells is not mediated by the tested genes or that alterations in their ratio are the underlying mechanism.

Bak gene [2] = experiment: rtPCR gene expression in A375 cells; type: cell-based, human
Description: as §1

Bcl-XL gene [3] = experiment: rtPCR gene expression in A375 cells; type: cell-based, human
Description: as §1

Bcl-2 gene [4] = experiment: rtPCR gene expression in A375 cells; type: cell-based, human
Description: as §1

Bad gene [5] = experiment: rtPCR gene expression in Sk-Mel-28 cells; type: cell-based, human
Bcl-2 gene [6] = experiment: rtPCR gene expression in RPMI cells; type: cell-based, human
Bak gene [7] = experiment: rtPCR gene expression in RPMI cells; type: cell-based, human
Description: as §1

Bcl-XL gene [8] = experiment: rtPCR gene expression in RPMI cells; type: cell-based, human
Description: as §1

Bcl-2 gene [9] = experiment: rtPCR gene expression in Sk-Mel-28 cells; type: cell-based, human
chorioallantoic membrane [10] = experiment: Chorioallantoic membrane (CAM) angiogenesis assay; type: in vivo, chicken; settings: 1 µM in 0.5% DMSO, applied daily for 72 h
Description: The potential effects of compounds 6 and 7 on the angiogenesis process were investigated using the chorioallantoic membrane (CAM) assay which uses fertilized chicken eggs, incubated at 37 °C, under controlled humidity. On the third day of incubation (embryonic day 3 of development, EDD 3), a small opening was made at one end of the eggs and 5–6 mL of albumen was removed, thus facilitating the separation of the chorioallantoic membrane. On EDD 4, a window was cut on the upper side of the egg and subsequently resealed, returning the specimens to the incubator. On EDD 7 (0 h), 10 µL of each test solution was administered inside a plastic ring previously applied on the intensely vascularized surface of the CAM [75, 76]. […] All samples were applied daily in the same volume for 72 h. For each analyzed sample, 5 eggs were used, and all samples were applied in triplicate. Macroscopic evaluation was daily performed in ovo by means of stereomicroscopy (ZEISS SteREO Discovery.V8, Göttingen, Germany) and all images were registered and processed by Axiocam 105 color, AxioVision SE64. Rel. 4.9.1 Software, (ZEISS Göttingen, Germany), ImageJ (ImageJ Version 1.50e, https://imagej.nih.gov/ij/index.html, accessed on 12 May 2021) and GIMP software (GIMP v 2.8, https://www.gimp.org/, accessed on 12 May 2021).

1BR3 human fibroblasts = experiment: MTT cytotoxicity assay for healthy human cells; type: cell-based; settings: 1BR3 healthy cells, 48 h
Description: (§2) The in vitro cytotoxicity was determined by means of (4,5-dimethylthiazol-2-yl)-2,5-diphenyltetrazolium bromide (MTT) method. In brief, HaCaT, 1BR3 cells were seeded in 96-well plates at an initial density of […] and allowed to attach. Next, the old medium was removed and a fresh one was added containing five concentrations (100 µM, 10 µM, 1 µM, 0.1 µM, and 0.01 µM) of the tested compounds 6 and 7 after which cells were incubated for 48 h. The control cells were treated with the same amount of DMSO, the highest concentration of DMSO present in the medium being 0.5%. A volume of […] MTT reagent (5 mg/mL) was added in each well. During a 4 h contact period, the intact mitochondrial reductase converted and precipitated MTT as blue crystals. The precipitated crystals were dissolved in […] of lysis solution provided by the manufacturer (Sigma-Aldrich). Finally, the reduced MTT was spectrophotometrically analyzed at 570 nm, using a microplate reader (xMark Microplate Spectrophotometer, Bio-Rad, Hercules, CA, USA). GI50 was calculated for each healthy cell line.

[11] = test system: HaCaT—human keratinocytes; experiment: MTT cytotoxicity assay for healthy human cells; type: cell-based; settings: 48 h
Description: as §2

chorioallantoic membrane [12] = experiment: HET-CAM irritation assay; settings: for Irritation Score: 5 min
Description: HET-CAM assay was used in order to assess the toxicity of compounds 6 and 7 (Figure 16); the procedure is a low-cost, unique model in biomedical research that allows the testing of the irritation potency of chemical compounds while simultaneously avoiding in vivo experiments. […] The Luepke scale was used to establish the irritation score: 0–0.9 indicates non-irritant, 1–4.9 indicates weakly irritant, 5–8.9 indicates moderately irritant, and 9–21 means strongly irritant.
Compounds 6 and 7 were also evaluated in terms of biocompatibility on mucosal tissues by using the in vivo Hen’s Egg Chorioallantoic Membrane Test (HET-CAM assay). The assay assesses a potential irritant effect on the vascular plexus of the chorioallantoic membrane. The HET-CAM method was carried out following ICCVAM recommendations published in November 2016 in Appendix G and adapted to our laboratory conditions. Thus, 300 µL of control or test solution, respectively, was applied on CAM and the alterations induced at the CAM level were monitored by means of stereomicroscopy (Discovery 8 Stereomicroscope, Zeiss), registering significant images (Axio CAM 105 color, Zeiss), before the application and after 5 min contact with the samples. All images were processed using Zeiss ZEN software, Gimp 2.8 and ImageJ software. Negative control was represented by distilled water and solvent control DMSO 0.5%, while the positive control by the sodium lauryl sulphate (SLS) 0.5% in distillate water. The test substances were tested in concentrations of 1 µM. The observation time of the produced reactions was 5 min (300 s) and the time, at which the occurrence of a particular reaction took place was recorded in seconds. Finally, the following reactions were monitored: hemorrhage—H (blood vessel bleeding), vascular lysis —L (disintegration of blood vessels), and coagulation —C (intra or extra- vascular protein denaturizing). A variety of analysis methods may be used to assess irritancy potential of test substances. One analysis method that has been used extensively used is an irritation score (IS) calculated according to the following formula: IS=5×301−SecH/300+[…]/300+9×301−SecC/300 where H = hemorrhage; L = vessel lysis; C = coagulation; Hemorrhage time (Sec H) = onset of hemorrhage reactions on CAM (in sec); Lysis time (Sec L) = onset of vessel lysis on CAM (in sec); Coagulation time (Sec C) = onset of coagulation formation on CAM (in sec). The formula comprises a factor indicating the impact of the observed effect on vascular damage, e.g., coagulation has the highest impact expressed by the multiplication factor 9. The IS values range on a scale between 0 and 21.

Question: C[C@H]1[C@@H]2[C@H]3CC[C@@H]4[C@@]5(C)C/C(=C\c6cccnc6)C(=O)C(C)(C)[C@@H]5CC[C@@]4(C)[C@]3(C)CC[C@]23CO[C@@]1(C)[C@@H](C(=O)/C=C/c1cccnc1)C3 [Compound 6, 3-Oxo-2-(3-pyridinylidene)-21-[3-(2E-pyridinyl)-prop-2-en-1-one]-20β,28-epoxy-18α,19βH-ursane] was tested. Which “Bad gene expression, Mean” value (Bad gene [1]) did it give?
Answer: downregulated

Question: And the “Bad gene expression, Mean” value (Bad gene [1]; listed as compound 6)?
Answer: 0.150 *

Question: And the “Bak gene expression, Mean” value (Bak gene [2])?
Answer: downregulated

Question: And the “Bak gene expression, Mean” value (Bak gene [2]; listed as compound 6)?
Answer: 0.546 ***

Question: What about the “Bcl-XL gene expression, Mean” value (Bcl-XL gene [3]) of the same compound?
Answer: 0.286 *

Question: And the “Bcl-2 gene expression, Mean” value (Bcl-2 gene [4])?
Answer: 2.570

Question: And the “Bad gene expression, Mean” value (Bad gene [5])?
Answer: 15.716 **

Question: What about the “Bcl-2 gene expression, Mean” value (Bcl-2 gene [6]) of the same compound?
Answer: 0.246 **

Question: What about the “Bak gene expression, Mean” value (Bak gene [7]) of the same compound?
Answer: 0.066 ***

Question: What about the “Bcl-XL gene expression, Mean” value (Bcl-XL gene [8]) of the same compound?
Answer: 0.100 **

Question: And the “Bcl-2 gene expression, Mean” value (Bcl-2 gene [9])?
Answer: 0.200 *

Question: What about the “Effect on the normal angiogenic process” value (chorioallantoic membrane [10]) of the same compound?
Answer: only slightly affected angiogenesis

Question: And the GI50 (1BR3 human fibroblasts)?
Answer: 23.1 µM

Question: What about the GI50 (1BR3 human fibroblasts; Homo sapiens, Fibroblast) of the same compound?
Answer: > 15 µM

Question: And the GI50 [11]?
Answer: 18.6 µM

Question: And the GI50 ([11]; Homo sapiens, HaCaT)?
Answer: > 15 µM

Question: And the “Irritation Score” value (chorioallantoic membrane [12]; HET-CAM, 300 µL, 1 µM test compounds, scale 0–21)?
Answer: 0

Question: What about the “Type of Effect” value (chorioallantoic membrane [12]; HET-CAM, Luepke scale) of the same compound?
Answer: Non irritant

Question: How did the “Bad gene expression, Mean” value (Bad gene [1]) turn out when COC(=O)[C@]12CC[C@@H](C(=O)/C=C/c3cccnc3)[C@@H]1[C@H]1CC[C@@H]3[C@@]4(C)C/C(=C\c5cccnc5)C(=O)C(C)(C)[C@@H]4CC[C@@]3(C)[C@]1(C)CC2 [Compound 7, methyl 2,30-bis-(3-pyridinylidene)-3,20-dioxo-lup-28-oate] was run?
Answer: upregulation

Question: And the “Bad gene expression, Mean” value (Bad gene [1]; listed as compound 7)?
Answer: 155.433 *

Question: And the “Bak gene expression, Mean” value (Bak gene [2])?
Answer: upregulation

Question: What about the “Bak gene expression, Mean” value (Bak gene [2]; listed as compound 7) of the same compound?
Answer: 17.743 ***

Question: And the “Bcl-XL gene expression, Mean” value (Bcl-XL gene [3])?
Answer: upregulation

Question: What about the “Bcl-XL gene expression, Mean” value (Bcl-XL gene [3]; listed as compound 7) of the same compound?
Answer: 28.893 **

Question: And the “Bcl-2 gene expression, Mean” value (Bcl-2 gene [4])?
Answer: upregulation

Question: What about the “Bcl-2 gene expression, Mean” value (Bcl-2 gene [4]; listed as compound 7) of the same compound?
Answer: 81.120 ***

Question: What about the “Bad gene expression, Mean” value (Bad gene [5]) of the same compound?
Answer: 65.946 ***

Question: What about the “Bcl-2 gene expression, Mean” value (Bcl-2 gene [6]) of the same compound?
Answer: 0.313

Question: What about the “Bak gene expression, Mean” value (Bak gene [7]) of the same compound?
Answer: 0.990 **

Question: And the “Bcl-XL gene expression, Mean” value (Bcl-XL gene [8])?
Answer: 1.360 *

Question: And the “Bcl-2 gene expression, Mean” value (Bcl-2 gene [9])?
Answer: 0.210 *

Question: What about the “Effect on the normal angiogenic process” value (chorioallantoic membrane [10]) of the same compound?
Answer: did not interfere with the normal angiogenic process; also recorded: does not influence the angiogenic process

Question: And the GI50 (1BR3 human fibroblasts)?
Answer: 20.9 µM

Question: What about the GI50 (1BR3 human fibroblasts; Homo sapiens, Fibroblast) of the same compound?
Answer: > 15 µM

Question: What about the GI50 [11] of the same compound?
Answer: 15.4 µM

Question: And the GI50 ([11]; Homo sapiens, HaCaT)?
Answer: > 15 µM

Question: What about the “Irritation Score” value (chorioallantoic membrane [12]; chicken, in vivo, 1 µM) of the same compound?
Answer: 0

Question: And the “Type of Effect” value (chorioallantoic membrane [12]; in vivo)?
Answer: Non irritant
